≈ marks a conversion by molar mass, not a printed value. Like-named read-outs stand apart in the source and are kept apart here.
Key:
Type in all cases: cell-based
[1] = test system: Prostate cancer cell line LNcaP; assay: Inhibitory activity on cancer cells, CellTiter-Glo viability, LNcaP; conditions: Homo sapiens, 72 hours treatment
Description: (§1) HUVEC (purchased from Allcells Biological Technology (Shanghai) Co., Ltd.); UM-UC-3 (ATCC); LNCaP (ATCC); RM-1 (purchased from Nanjing Cobioer Biosciences Co., Ltd.) (1) On the first day, the cells were seeded in a 96-well plate, and the previous medium was poured off. 5 mL of DPBS was added to wash the cells, and then removed by a pipette and discarded. Then, 1 mL of trypsin (0.25%) was added, and the plate was placed in a cell culture incubator at 37 °C, 5% CO2 for digestion, and taken out after about 2 to 5 minutes. New corresponding medium was added, and pipetted to resuspend the cells evenly, and the cells were then counted with an automated cell counter. Regarding HUVEC, the medium used was endothelial cell complete medium; regarding UM-UC-3, the medium used was 89 v % EMEM+10 v % fetal bovine serum+1 v % penicillin-streptomycin double anti-body; regarding LNcaP, the medium used was 89 v % RPM11640+10 v % fetal bovine serum+1 v % penicillin-streptomycin double anti-body; and regarding RM1, the medium used was 89 v % DMEM+10 v % fetal bovine serum+1 v % penicillin-streptomycin double anti-body. (2) HUVEC cells were seeded in columns 1 to 11 of a 96-well plate (Corning, Cat. No. 3610) at a density of 2000 cells per well in 100 μL of medium, and the medium free of cell was added to the wells of column 12. The other three types of cells were also seeded, wherein UM-UC-3 and RM-1 cells were seeded at a density of 3000 cells per well, and LNCap cells were seeded at a density of 5000 cells per well. Then, the plate was placed in an incubator at 37° C., 5% CO2 for 24 hours. (3) On the second day, the compounds of the present invention and the reference drug nitroxoline (obtained according to the preparation method disclosed in the prior art) were diluted in gradient (2.5 folds, started at 100 μmol) to obtain 8 dose points (there were a total of 8 columns of wells; the first column of wells had the highest concentration, the concentration decreased in turn, and the last column of wells had the lowest concentration). 10 μL of the compound diluted in gradient was added to the 100 μL of cells in column 1 to column 10 with an 8-channel pipette. 10 μL of the corresponding medium containing 0.33 v % DMSO was added to column 11 and column 12. The plate was incubated in an incubator at 37° C., 5% CO2 for 72 hours (note: column 11 was used as MAX well with cells and no compounds; and column 12 was used as MIN well with no cells and no compounds). (4) After treating with the compounds of the present invention for 72 hours, the cell viability detection reagents in the above CellTiter-Glo® assay kit were added to the 96-well plate at 50 μL per well according to the instructions. The plate was shaken on a shaker in the dark for 5 to 10 minutes, and then the cell activity was determined by a multifunctional microplate reader. Finally, the growth inhibition of the compounds of the present invention on the cells was plotted by XLFIT 5.3 software, and the IC50 values of the compounds of the present invention were calculated.

[2] = test system: Acinetobacter baumannii (carbapenem-resistant clinical isolates; ATCC19606); assay: MIC by micro broth dilution (CLSI), Acinetobacter baumannii; conditions: Acinetobacter baumannii; for MIC50 / MIC90: ATCC19606
Text: (§2) The test bacteria were one strain of clinically isolated carbapenem-resistant Escherichia coli, two strains of carbapenem-resistant Acinetobacter baumannii, two strains of methicillin-resistant Staphylococcus aureus, two strains of sensitive Staphylococcus aureus, and 7 strains of Klebsiella pneumoniae. Duplicate strains isolated from the same patient were eliminated. There were also […] quality control strains Escherichia coli ATCC25922, Acinetobacter baumannii ATCC19606, Staphylococcus aureus ATCC29213, Klebsiella pneumoniae ATCC BAA-1705, ATCC 43816, ATCC BAA-2472, ATCC-BAA-1898, ATCC-BAA-1899, NCTC 13440 and ATCC-BAA-2470. There were 24 strains in total.
(§3) According to the recommendations of relevant documents of the American Clinical and Laboratory Standards Institute (CLSI), the micro broth dilution method was used to determine the MIC of the compounds of the present invention against clinically isolated strains. • 3.1 Formulation of antibacterial drug: All the compounds of the present invention were dissolved in DMSO. The drug concentration range was 128 mg/L to 0.06 mg/L. • 3.2 Culture medium: The drug susceptibility test used cation adjusted Mueller-Hinton broth (CAMHB). • 3.3 Amount of inoculum: The test bacteria cultured overnight were adjusted to 0.5 McFarland turbidity by the direct colony suspension method, and diluted 100 folds, the final inoculum amount was 10^5 CFU/mL. • 3.4 Culture conditions: The test bacteria were cultured at 35±2° C. for 20 hours in air.
(§4) The drug susceptibility test results were interpretated by reference to CLSI 2019 M100 29th edition criteria.
(§5) The quality control strains of the drug susceptibility test were Escherichia coli ATCC 25922, Acinetobacter baumannii ATCC 19606, Staphylococcus aureus ATCC 29213, Klebsiella pneumoniae ATCC BAA-1705, ATCC 43816, ATCC BAA-2472, ATCC-BAA-1898, ATCC-BAA-1899, NCTC 13440 and ATCC-BAA-2470.
(§6) The results of drug susceptibility test were statistically analyzed by WHONET software (version 5.6).

[3] = test system: Bladder cancer cell line UM-UC-3; assay: Inhibitory activity on cancer cells, CellTiter-Glo viability, UM-UC-3; conditions: Homo sapiens, UMUC3, 72 hours treatment
Description: as §1

[4] = test system: Staphylococcus aureus (methicillin-resistant and sensitive clinical isolates; ATCC29213); assay: MIC by micro broth dilution (CLSI), Staphylococcus aureus
Text: as §2, §3, §4, §5, §6

[5] = test system: Endothelial cell line HUVEC; assay: Inhibitory activity on cells, CellTiter-Glo viability, HUVEC; conditions: Homo sapiens, 72 hours treatment
Description: as §1

[6] = test system: Escherichia coli (carbapenem-resistant clinical isolate; ATCC25922); assay: MIC by micro broth dilution (CLSI), Escherichia coli; conditions: Escherichia coli
Text: as §2, §3, §4, §5, §6

[7] = Clinical strain, read-out: MIC50
[8] = Clinical strain, read-out: MIC90
[9] = clinical strains, micro broth dilution, CAMHB, 35±2° C., 20 hours, read-out: MIC50 Acinetobacter baumannii Clinical strain
[10] = clinical strains, micro broth dilution, CAMHB, 35±2° C., 20 hours, read-out: MIC90 Acinetobacter baumannii Clinical strain
[11] = standard strain ATCC19606, micro broth dilution, CAMHB, 35±2° C., 20 hours, read-out: MIC Acinetobacter baumannii Standard strain ATCC19606
[12] = clinical strains, micro broth dilution, CAMHB, 35±2° C., 20 hours, read-out: MIC50 Staphylococcus aureus Clinical strain
[13] = clinical strains, micro broth dilution, CAMHB, 35±2° C., 20 hours, read-out: MIC90 Staphylococcus aureus Clinical strain
[14] = standard strain ATCC29213, micro broth dilution, CAMHB, 35±2° C., 20 hours, read-out: MIC Staphylococcus aureus Standard strain ATCC29213
[15] = clinical strains, micro broth dilution, CAMHB, 35±2° C., 20 hours, read-out: MIC50 Escherichia coli Clinical strain
[16] = clinical strains, micro broth dilution, CAMHB, 35±2° C., 20 hours, read-out: MIC90 Escherichia coli Clinical strain
[17] = standard strain ATCC25922, micro broth dilution, CAMHB, 35±2° C., 20 hours, read-out: MIC Escherichia coli Standard strain ATCC25922

| MIC50 [2, 9] | MIC90 [2, 10] | MIC [2, 11] | MIC50 [4, 12] | MIC90 [4, 13] | MIC [4, 14] | MIC50 [6, 15] | MIC90 [6, 16] | MIC [6, 17] | SMILES | also measured |
| --- | --- | --- | --- | --- | --- | --- | --- | --- | --- | --- |
| – | – | – | – | – | – | – | – | – | CN1CCN(c2ccnc3c(O)c([N+](=O)[O-])ccc23)CC1 [Example 18, 4-(4-Methylpiperazinyl)-7-nitroquinolin-8-ol] | IC50 [1]: 21.2 µM; MIC50 [2, 7]: 128 µg/mL (≈ 444 µM); MIC90 [2, 8]: 128 µg/mL (≈ 444 µM); MIC ([2]; Standard strain ATCC19606, read-out: MIC): 128 µg/mL (≈ 444 µM); IC50 [3]: 13.2 µM; MIC50 [4, 7]: 128 µg/mL (≈ 444 µM); MIC90 [4, 8]: 128 µg/mL (≈ 444 µM); MIC ([4]; Standard strain ATCC29213, read-out: MIC): 128 µg/mL (≈ 444 µM); IC50 [5]: 64.4 µM; MIC50 ([6]; ATCC25922, Clinical strain, read-out: MIC50): 128 µg/mL (≈ 444 µM); MIC90 ([6]; ATCC25922, Clinical strain, read-out: MIC90): 128 µg/mL (≈ 444 µM); MIC ([6]; Standard strain ATCC25922, read-out: MIC): 128 µg/mL (≈ 444 µM) |
| – | – | – | – | – | – | – | – | – | O=[N+]([O-])c1ccc2c(NC3COC3)ccnc2c1O [Example 19, 7-Nitro-4-(3-oxetanylamino)quinolin-8-ol] | IC50 [1]: > 100 µM; IC50 [3]: > 100 µM; IC50 [5]: > 100 µM |
| 16 µg/mL (≈ 59.5 µM) | 32 µg/mL (≈ 119 µM) | 8 µg/mL (≈ 29.7 µM) | 4 µg/mL (≈ 14.9 µM) | 16 µg/mL (≈ 59.5 µM) | 8 µg/mL (≈ 29.7 µM) | 128 µg/mL (≈ 476 µM) | 128 µg/mL (≈ 476 µM) | 16 µg/mL (≈ 59.5 µM) | O=[N+]([O-])c1cc(Br)c2cccnc2c1O [Example 121, 5-bromo-7-nitroquinolin-8-ol] | – |
| 64 µg/mL (≈ 307 µM) | 64 µg/mL (≈ 307 µM) | 64 µg/mL (≈ 307 µM) | 64 µg/mL (≈ 307 µM) | 64 µg/mL (≈ 307 µM) | 128 µg/mL (≈ 615 µM) | 64 µg/mL (≈ 307 µM) | 64 µg/mL (≈ 307 µM) | 64 µg/mL (≈ 307 µM) | O=[N+]([O-])c1c(F)cc2cccnc2c1O [Example 122, 6-fluoro-7-nitroquinolin-8-ol] | – |
| 4 µg/mL (≈ 16.5 µM) | 8 µg/mL (≈ 33 µM) | 4 µg/mL (≈ 16.5 µM) | 2 µg/mL (≈ 8.24 µM) | 4 µg/mL (≈ 16.5 µM) | 4 µg/mL (≈ 16.5 µM) | 16 µg/mL (≈ 66 µM) | 32 µg/mL (≈ 132 µM) | 8 µg/mL (≈ 33 µM) | O=[N+]([O-])c1c(Cl)c(F)c2cccnc2c1O [Example 123, 6-chloro-5-fluoro-7-nitroquinolin-8-ol] | – |
| 4 µg/mL (≈ 13.9 µM) | 8 µg/mL (≈ 27.9 µM) | 8 µg/mL (≈ 27.9 µM) | 4 µg/mL (≈ 13.9 µM) | 4 µg/mL (≈ 13.9 µM) | 4 µg/mL (≈ 13.9 µM) | 16 µg/mL (≈ 55.7 µM) | 64 µg/mL (≈ 223 µM) | 8 µg/mL (≈ 27.9 µM) | O=[N+]([O-])c1c(Br)c(F)c2cccnc2c1O [Example 124, 6-bromo-5-fluoro-7-nitroquinolin-8-ol] | – |
| 8 µg/mL (≈ 35.4 µM) | 16 µg/mL (≈ 70.8 µM) | 8 µg/mL (≈ 35.4 µM) | 8 µg/mL (≈ 35.4 µM) | 8 µg/mL (≈ 35.4 µM) | 8 µg/mL (≈ 35.4 µM) | 16 µg/mL (≈ 70.8 µM) | 16 µg/mL (≈ 70.8 µM) | 8 µg/mL (≈ 35.4 µM) | O=[N+]([O-])c1c(F)c(F)c2cccnc2c1O [Example 125, 5,6-difluoro-7-nitroquinolin-8-ol] | – |

— patent US20240246916A1, “7-NITRO-8-HYDROXYQUINOLINE DERIVATIVES, PREPARATION METHOD THEREFORE AND MEDICAL USE THEREOF” (Jiangsu Yahong Meditech Co., Ltd., priority 2021, published 2024)
